Where two headings read alike, the source gives them in different places.
Settings: rat, in vivo; for AUC Mean ± SD / Cmax Mean ± SD: po, 50 mg/kg
Experimental: The following administration liquids were prepared. 10% propylene glycol: a propylene glycol liquid having a concentration of 10% was prepared by diluting propylene glycol with distilled water.
Propolis solution: the required amount of propolis powder (Brazilian green propolis) was weighed and ground in a mortar, and the 10% propylene glycol was added to dissolve the powder to prepare a propolis solution with a concentration of 25 mg/mL as the propolis concentration.
Curcumin suspension: the required amount of curcumin powder (C. longa extract (ethyl acetate extract powder, curcumin content of 95% by mass)) was weighed and ground in a mortar, and then the 10% propylene glycol was added to suspend the powder to prepare a curcumin suspension with a curcumin concentration of 100 mg/mL.
Eighteen 7-week-old male rats (Slc: Wistar/ST, SPF, Japan SLC, Inc.) were acclimated for 7 days. The rats were allowed to freely ingest the solid feed CRF-1 (Oriental Yeast Co., ltd.). The rats were fasted for 8 to 10 hours before the administration of the administration liquids. The rats were divided into three groups of six rats each by a stratified allocation method using EXSUS (Version 10.0.0, EP Croit Co., Ltd.) so that the weight of each group was equal.
In the propolis group, the propolis solution was administered immediately after the administration of 10% propylene glycol. In the propolis+curcumin A group, the propolis solution was administered immediately after the administration of the curcumin suspension. In the propolis+curcumin B group, the propolis solution was administered about 30 minutes after the administration of the curcumin suspension. The administration was carried out in a volume of 2 ml/kg rat body weight for each administration solution. In other words, 50 mg of propolis and 200 mg of curcumin were administered per 1 kg of rat body weight. The administration was carried out under no anesthesia by using a syringe (Terumo Corporation) and an oral feeding needle for rats (Fuchigami Kikai, Ltd).
Blood collection of rats was carried out once 30 minutes before the administration of propolis solution (but before the administration of curcumin suspension in the group with the curcumin suspension administrated) and 0.5, 1, 1.5, 2, 3, 6, 9, and 24 hours after the administration of propolis solution. At each blood sampling time, the tail of rats was disinfected with 70% ethanol under no anesthesia, and then the tip of the tail was cut with a razor to collect about 150 μL of leaking blood by using a hematocrit tube (Fisher Scientific 22-362-566). Nine hours after administration of the propolis solution, feeding was resumed for all fasting animals.
The blood, which had been stored in ice after collection, was centrifuged (1600 ×g, 10 min, 4° C.) using a micro high-speed cooling centrifuge (model MX-100: Tomy Seiko Co., Ltd.) to collect plasma from the blood. The plasma was frozen and stored in a −80° C. freezer.
The concentrations of p-coumaric acid, artepillin C, drupanin, culifolin, capillartemisin A, 3,4-dihydroxy-5-prenyl-(E)-cinnamic acid, and 2,2-dimethylchromene-6-(E)-propenoic acid, kaempferide, 6-methoxy kaempferide, and dihydro kaempferide in the resulting plasma were quantified by LCMS.
For each ingredient, the maximum blood concentration (Cmax) and the area under the curve (AUC) were calculated from the resulting concentrations. AUC is an indicator of the total amount of each ingredient absorbed into the body. […] The ratio in the table indicates the ratio of the mean value of the propolis+curcumin A group to that of the propolis group. Statistics were carried out by t-test.

Row | AUC Mean ± SD | Cmax Mean ± SD | AUC Ratio (male, Slc: Wistar/ST) | Cmax Ratio (male, Slc: Wistar/ST) | SMILES | AUC Ratio | Cmax Ratio | increase in absorption compared to the propolis group
1 | 983.44 ± 372.02 | 343.72 ± 41.6 | 1.07 | 1.42 | O=C(O)/C=C/c1ccc(O)cc1 [p-Coumaric acid] | – | – | –
2 | – | – | – | – | COc1ccc(-c2oc3cc(O)c(OC)c(O)c3c(=O)c2O)cc1 [6-methoxy kaempferide, reference compound] | – | – | no significant increase in absorption was observed
3 | 1088.92 ± 68.35 | 68.98 ± 5.16 | – | – | CC(C)=CCc1cc(/C=C/C(=O)O)cc2c1OC(C)(C)C=C2 [Culifolin] | 1.26 | 1.34 | –
4 | – | – | – | – | COc1ccc(-c2oc3cc(O)cc(O)c3c(=O)c2O)cc1 [kaempferide, reference compound] | – | – | no significant increase in absorption was observed
5 | 51.02 ± 28.27 | 7.5 ± 7.5 | 1.25 | 1.53 | CC(C)=CCc1cc(/C=C/C(=O)O)cc(O)c1O [3,4-dihydroxy-5-prenyl-(E)-cinnamic acid] | – | – | –
6 | 84.5 ± 4.49 | 18.48 ± 4.02 | – | – | CC1(C)C=Cc2cc(/C=C/C(=O)O)ccc2O1 [2,2-dimethylchromene-6-(E)-propenoic acid] | 1.27 | 1.56 | –
7 | – | – | – | – | COc1ccc(C2Oc3cc(O)cc(O)c3C(=O)C2O)cc1 (stereo not shown) [dihydro kaempferide, reference compound] | – | – | no significant increase in absorption was observed

Row | SMILES | AUC Mean ± SD | Cmax Mean ± SD | AUC Ratio (male, Slc: Wistar/ST) | Cmax Ratio (male, Slc: Wistar/ST) | AUC Ratio | Cmax Ratio | increase in absorption compared to the propolis group
8 | CC(C)=CCc1cc(/C=C/C(=O)O)cc(C/C=C(\C)CO)c1O [Capillartemisin A] | 109.74 ± 12.25 | 10.39 ± 2.01 | – | – | 1.83 | 1.91 | –
9 | CC(C)=CCc1cc(/C=C/C(=O)O)cc(CC=C(C)C)c1O [Artepillin C] | 811.33 ± 191.31 | 77.7 ± 13.11 | – | – | 1.39 | 1.7 | –
10 | CC(C)=CCc1cc(/C=C/C(=O)O)ccc1O [Drupanin] | 486.19 ± 34.29 | 93.12 ± 19.93 | – | – | 1.41 | 1.98 | –

Source: patent US20220105054A1, “ABSORPTION ENHANCER OF CINNAMIC ACID DERIVATIVE” (YAMADA BEE COMPANY, INC., priority 2020, published 2022)
